From US6486197B1, “Substance ft-0554 and process for producing the same” (The Kitasato Institute, priority 1997, dated 2002)

Key:
[1] = tested on: Candida albicans KF1; assay: Paper disk antimicrobial activity; assay type: cell-based; design: unit not given here; conditions: 1 mg/ml 10 μl on 6 mm paper disk, 24 hours
[2] = tested on: Mucor racemosus KF223 (IFO 4581); assay: Paper disk antimicrobial activity; assay type: cell-based; design: unit not given here; conditions: 1 mg/ml 10 μl on 6 mm paper disk, 24 hours

CCC(C)/C=C/C=C(\C)CC(C)/C=C/C=C/C1OC(=O)C(O)C2OC12C (centres unmarked) [FT-0554 substance]
inhibition zone diameter [1]: 12 | inhibition zone diameter [2]: 10
